Data taken from patent US20190298745A1, “COMPOSITION FOR CONTROLLING SECRETION OF PROSTASOMES AND USE THEREOF” (Industrial Cooperation Foundation Chonbuk National, priority 2018, published 2019).
Entries after “also recorded” stand apart in the source; their conditions may differ.

Experiments:
[1] = test system: DU-145, human prostate cancer cell line; experiment: Western blotting of prostasome (exosomal) marker proteins in prostasomes from culture supernatant; type: cell-based
Method: Specifically, the prostate cancer cell line DU-145 were cultured in DMEM (GIBCO/Invitrogen, USA) supplemented with 10% exosome-free FBS (GIBCO/Invitrogen, USA) and 1% antibiotics-antimycotic (GIBCO/Invitrogen, USA) under the conditions of 37° C. and 5% CO2. The cell culture was collected and centrifuged at 3,000 rpm for 30 minutes to separate the supernatant. The supernatant was centrifuged at 15,000×g for 20 minutes using a Beckman's high-speed centrifuge, and the supernatant was separated again. The supernatant was centrifuged at 105,000×g for 2 hours using a high-speed centrifuge to obtain a precipitate. The collected precipitate was resuspended in the same buffer. The first eluted fraction was collected using sephadex G-200 (Sigma, USA), centrifuged again, and then suspended for use. 20 μg of protein was inactivated in 5× sample buffer at 100° C. for 5 minutes and then electrophoresed on a 10% SDS polyacrylamide gel. The separated proteins were transferred to a PVDF membrane and blocked in 2% BSA for 90 minutes. The respective HSP70, β-actin, Rab5 and LAMP1 antibodies were placed overnight at 4° C. in a ratio of 1:1,000 and then washed three times for 10 minutes with tris-buffered saline Tween-20 (TBST) buffer. The secondary antibodies were diluted at a ratio of 1:1,000 and allowed to adhere at room temperature for 2 hours. The membranes washed three times for 15 minutes with TBST buffer were treated with ECL (Bio-Rad, USA), and the amount of the protein expression was measured with LAS-500 (GE Healthcare Life Science, USA). DU-145, prostate cancer cell line, was treated with KCl, which induces cell membrane depolarization. Western blotting was performed to identify changes in prostasome-related protein expression. Specifically, the cells were cultured with KCl at various concentrations (0, 5, 10, 25, 50 and 100 mM) for 1 hour, and prostasomes were prepared from the culture supernatant by the method described in Experimental Example 1 and subjected to Western blotting. Further, cells were cultured with 25 mM KCl for various times (0, 10, 30, 60, 120 and 180 minutes) and subjected to Western blotting. The results are illustrated in FIG. 1. Furthermore, DU-145, human prostate cancer cell line was pretreated with a regulator of intracellular calcium (Ca^2+) signaling second messenger to analyze the change in the prostasome-related protein expression. Specifically, DU-145 cells were treated with various antagonists (regulator of intracellular calcium signaling second messenger) such as 100 μg/ml heparin (selective IP3 receptor inhibitor), 50 μM 8-Br-cADPR (antagonist of cADPR) and 1 μM NED-19 (antagonist of NAADP) together with 25 mM KCl. Prostasomes were prepared from the culture supernatant by the method described in Experimental Example 1, and Western blotting was performed. All antagonists were preincubated for 30 minutes before KCl treatment, and the cells were cultured for an additional 1 hour after KCl treatment. The results are illustrated in FIG. 3. Capsaicin (Sigma Aldrich, Mo., USA), which induces intracellular calcium (Ca^2+) signaling, was used to confirm the change in prostasome-related protein expression according to capsaicin treatment in DU-145, human prostate cancer cell line by Western blot. Specifically, the cells were cultured with capsaicin at various concentrations (0, 12.5, 25, 50, 100 and 200 μM) for 3 hours, and prostasomes were prepared from the culture supernatant by the method described in Example 2 and subjected to Western blotting, The cells were also cultured with 50 μM capsaicin for various times (0, 10, 30, 60, […], 120 and 180 minutes) and subjected to Western blotting. The results are illustrated in FIG. 4.

[2] = test system: DU-145, human prostate cancer cell line; experiment: Intracellular calcium measurement (fluo-3, confocal microscopy); type: cell-based; conditions: for continuous increase of [Ca2+]i by KCl treatment: pretreatment with antagonist before KCl, FIG. 2B-D
Method: DU-145, human prostate cancer cell line, was pretreated with a regulator of intracellular calcium (Ca^2+) signaling second messenger, and the intracellular calcium signaling pattern thereof was analyzed. The concentration of intracellular calcium was measured by the following method: A cell suspension pretreated with a fluo-3 (molecular probe, USA) was titrated in a confocal dish (SPL, Seoul, Korea) coated with poly-L-lysine (Sigma-Aldrich, USA) and reacted for 20 minutes in a CO2 incubator to attach the cells. Then, the intracellular calcium amount was measured by a confocal microscopy system of Nikon Co, using the method of Tsien et al. (Tsien et al., Nature 295, 68-71 (1982)), and the results are illustrated in FIG. 2.

[3] = test system: mouse oocytes; experiment: In vitro fertilization test; type: cell-based; conditions: sperms fused with prostasomes obtained with or without pretreatment by regulator, reacted with oocytes, 36 hours; FIG. 6
Method: In order to perform the in vitro fertilization test, the method of Ren et al. (Ren et al., Nature 413, 603-609 (2001)) was modified and used. A 10 to 12-week-old female mouse was injected with pregnant mare serum gonadotropin (PMSG) (5 IU; Sigma-Aldrich). After 48 hours, the mouse was injected with human chorionic gonadotropin (hCG) (5 IU; Sigma-Aldrich). After 14 hours of the last injection, uterine tubes were removed and perfused with IVF medium (Medicult, USA), and flown oocytes were collected using a low magnification microscope.
The collected oocytes were resuspended in IVF medium and were cultured with prostasomes which were obtained in the presence or absence of the regulator of the intracellular calcium signaling second messenger, causing fertilization reaction. The heated mineral oil was overlaid on top of the medium to block the outside air. After 36 hours of the culture, the total number of oocytes contained in the culture medium was counted under a microscope, and cells above the two-cell stage were counted. The fertilization rate was calculated using the following formula. The case that the sperms that had undergone the same fusion process without prostasome treatment were cultured with about 15 oocytes was referred to as 100%. The results are illustrated in FIG. 6. […]

[4] = test system: mouse sperms; experiment: Sperm motility test (CASA) of sperms fused with prostasomes from PPECs; type: cell-based; conditions: sperms fused with PPECs-derived prostasomes (with or without pretreatment of the prostate cells), vs no fusion; FIG. 5
Method: The prostasomes of the mouse were obtained by incising the mouse abdominal cavity and obtaining the prostate under the bladder through microsurgery (Drost et al, 2016, Nat Protoc. 11(2): 347-358). Later, the effluent from the prostate gland was collected from the prostate and diluted using BWW (Bigger, Whitten, arid Whittingham) medium [10 mM Hepes, 20 mM sodium lactate, 5 mM glucose, 0.25 mM sodium pyruvate, penicillin G (80 mg/L), streptomycin sulfate (50 mg/L), 95 mM NaCl, 4.8 mM KCl, 1.3 mM CaCl2, 1.2 mM KH2PO4, and 1.2 mM MgSO4 in 25 mM NaHCO3 buffer, pH 7.4]). The supernatant was used to collect prostasomes by the same method as described above.
To collect mouse sperms which are not fused with prostasomes, the tail epididymis of a male mouse was surgically removed, and blood and adipose tissue were removed using ophthalmic scissors. The epididymis was punctured with a 30 gauge sterilized needle and pinched by tweezers to release a large number of sperms. […]
Specifically, the isolated sperms were diluted with a weak alkaline buffer with 0.32 M sucrose or binding buffer 150 mM NaCl, 1 mM CaCl2, 1 mM MgCl2, 5 mM glucose with 2 mM Hepes (pH 8.0)/20 mM MES (pH 5.0, binding buffer). […] The sperm motility rate was measured using a computer assisted sperm analysis (CASA) device (IVOS, Hamilton Thorne Biosciences, USA). […]

[5] = test system: C57BL/6 mice; experiment: In vivo fertilization test in mice (number of pups); design: species or system mouse; conditions: male C57BL/6 mice, 50 mg/kg intraperitoneally twice daily for 2 weeks, then mating 1:1 for 48 hours; FIG. 7
Method: The number of pups was measured in the mouse breeding process to confirm the increase of reproductive ability due to the promotion of the prostasome secretion (Nambu University's animal test approval number #201604), 7-week-old male C57BL/6 mice were randomly assigned into three groups and adapted to the breeding conditions. The groups were divided into the normal untreated group, the solvent-[…] group, and the capsaicin-treated group. Capsaicin was prepared at a high concentration (100-fold) in DMSO, then diluted in phosphate buffered saline (PBS, pH 7.2), and used as an injection. In the solvent-treated group, PBS (200 μl) diluted with the same volume of DMSO was administered. Twice daily capsaicin (50 mg/kg) and placebo were intraperitoneally injected into each experimental group for 2 weeks. Then, each mouse was caged with a female c57BL/6 mouse adapted for the same breeding condition, mating them at a ratio of 1:1 for 48 hours. The mating started at 6 pm, and the mating success was evaluated by confirming that the plaque was formed at the vaginal entrance at 9:00 am, but it was maintained for 48 hours considering the possibility of premature dropping. Then, only the female was separated from each cage, and the separate breeding was performed for each group. After the gestation period (about 21 days), the number of pups was counted. […]

Question: How did the HSP70 expression ([1]; 25 mM KCl alone without an antagonist, 1 hour, FIG. 3) turn out when `[Cl-].[K+]` [KCl] was run?
Answer: Its HSP70 expression is “increased”.

Question: What about the “protein expression of HSP70 and LAMP1” value ([1]; 25 mM KCl for 0, 10, 30, 60, 120 and 180 minutes, FIG. 1B) of the same compound?
Answer: The value was “increased in a time-dependent manner”.

Question: What about the “protein expression of HSP70, Rab5 and LAMP1 (exosomal markers)” value ([1]; KCl 0, 5, 10, 25, 50 and 100 mM for 1 hour, FIG. 1A) of the same compound?
Answer: The value was “increased in a concentration-dependent manner”.

Question: And the “intracellular calcium ([Ca2+])” value ([2]; 120 μM KCl, FIG. 2A)?
Answer: Its value is “rapidly increased”.

Question: heparin was tested. Which “fertility (fertilization rate)” value [3] did it give?
Answer: The value was “reduced to be similar to that of the negative control”.

Question: For `C1CCC[C@H]2CCCN3CC[C@@H](CCCCCC[C@@H]4CCCN5CC[C@@H](CC1)O[C@@H]45)O[C@@H]23` [Xestospongin C], which “continuous increase of [Ca2+]i by KCl treatment” value (shortened to “continuous increase of [Ca2+]i”) [2] is on record?
Answer: Its value is “suppressed”.

Question: What about the “fertility (fertilization rate)” value [3] of the same compound?
Answer: The value was “reduced to be similar to that of the negative control”.

Question: Which sperm motility rate [4] does the source give for `O=P(O)(O)O[C@@H]1[C@H](O)[C@H](O)[C@@H](OP(=O)(O)O)[C@H](OP(=O)(O)O)[C@H]1O` [D-myo-IP3, D-myo-Inositol 1,4,5-triphosphate] here?
Answer: Its sperm motility rate is “doubling; also recorded: doubled”.

Question: Which “HSP70 expression (KCl-induced) with antagonist” value ([1]; 100 μg/ml heparin, 50 μM 8-Br-cADPR or 1 μM NED-19 preincubated 30 minutes, then 25 mM KCl 1 hour, FIG. 3) does the source give for `COc1ccc([C@H]2N[C@H](C(=O)O)Cc3c2[nH]c2ccccc32)cc1CN1CCN(c2ccccc2F)CC1` [Ned-19] here?
Answer: The value was “did not show the inhibitory effect”.

Question: And the “continuous increase of [Ca2+]i” value [2]?
Answer: The value was “not suppressed”.

Question: What does the source list for `COc1cc(CNC(=O)CCCC/C=C/C(C)C)ccc1O` [capsaicin]?
Answer: protein expression of HSP70, LAMP1 and Rab5 ([1]; 50 μM capsaicin for 0-180 minutes, FIG. 4B): increased in a time-dependent manner; protein expression of HSP70 ([1]; capsaicin 0, 12.5, 25, 50, 100 and 200 μM for 3 hours, FIG. 4A): increased in a concentration-dependent manner; number of pups [5]: increased

Question: How did the “continuous increase of [Ca2+]i” value [2] turn out when `N=c1c2nc(Br)n3c2ncn1C1OC(COP(=O)(O)OP(=O)(O)OCC2OC3C(O)C2O)C(O)C1O` (centres unmarked) [8-br-cADPR, 8-Br-cADPR] was run?
Answer: Its value is “suppressed”.
